The values below are quoted from earlier work in patent US20250042860A1, “Process for Chemical Synthesis of Ergothioneine and Methods of Use” (NANJING NUTRABUILDING BIO-TECH CO., LTD., priority 2022, published 2025).

The conditions of this data set: animals and humans, even at high doses.

On to ergothioneine, for which the “toxicity or adverse effects associated with ergothioneine administration” value is listed as “no toxicity or adverse effects”.
